Source: patent US10287305B2, “Substituted piperidine compound and use thereof” (Takeda Pharmaceutical Company Limited, priority 2016, dated 2019)
pEC50: −log10 of the molar value.

Molecular target: human orexin type 2 receptor (hOX2R) (Homo sapiens (Human), UniProt O43614)
Assay: Measurement of orexin type 2 receptor agonist activity (Experimental Example 2-1, FLIPR TETRA, intracellular Ca2+)
Format: cell-based
Settings: CHO dhfr- cells expressing hOX2R, FLIPR TETRA, Fluo-4AM; for Emax: read-out: Emax (%)

Sequence of human orexin type 2 receptor (hOX2R) (O43614 whole entry): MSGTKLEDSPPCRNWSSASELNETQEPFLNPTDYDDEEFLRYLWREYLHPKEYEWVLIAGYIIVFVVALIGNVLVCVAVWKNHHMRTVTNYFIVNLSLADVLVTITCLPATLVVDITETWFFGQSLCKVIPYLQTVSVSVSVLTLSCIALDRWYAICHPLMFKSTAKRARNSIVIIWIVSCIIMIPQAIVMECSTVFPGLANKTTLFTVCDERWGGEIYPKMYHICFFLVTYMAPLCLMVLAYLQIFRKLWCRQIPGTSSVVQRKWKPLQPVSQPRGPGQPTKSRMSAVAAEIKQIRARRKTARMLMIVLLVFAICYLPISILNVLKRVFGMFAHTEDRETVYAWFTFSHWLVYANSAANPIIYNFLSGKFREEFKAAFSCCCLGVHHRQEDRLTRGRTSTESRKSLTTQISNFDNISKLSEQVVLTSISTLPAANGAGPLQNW

Compound `CC(=O)N(C)CC(=O)N1CCC[C@H](NS(C)(=O)=O)[C@@H]1CO[C@H]1CC[C@@H](c2ccccc2)CC1` (relative stereo) [Example 156, N-methyl-N-(2-(cis-3-((methylsulfonyl)amino)-2-(((cis-4-phenylcyclohexyl)oxy)methyl)piperidin-1-yl)-2-oxoethyl)acetamide] has a pEC50 of 6.46 and an Emax of 95%.
Compound `CS(=O)(=O)N[C@H]1CCCN(C(=O)Cc2nccs2)[C@H]1CO[C@H]1CC[C@@H](c2ccccc2)CC1` (relative stereo) [Example 157, N-(cis-2-(((cis-4-phenylcyclohexyl)oxy)methyl)-1-(1,3-thiazol-2-ylacetyl)piperidin-3-yl)methanesulfonamide] has a pEC50 of 6.85 and an Emax of 91%.
`CC(=O)N1CCC[C@H](NS(C)(=O)=O)[C@@H]1CO[C@H]1CC[C@@H](c2ccn(C)n2)CC1` (relative stereo) [Example 158, N-(cis-1-acetyl-2-(((cis-4-(1-methyl-1H-pyrazol-3-yl)cyclohexyl)oxy)methyl)piperidin-3-yl)methanesulfonamide] was tested, and the pEC50 was 5.80 and the Emax was 83%.
Work on `CCNC(=O)N1CCC[C@H](NS(C)(=O)=O)[C@@H]1CO[C@H]1CC[C@@H](c2ccn(C)n2)CC1` (relative stereo) [Example 159, cis-N-ethyl-2-(((cis-4-(1-methyl-1H-pyrazol-3-yl)cyclohexyl)oxy)methyl)-3-((methylsulfonyl)amino)piperidine-1-carboxamide] yielded a pEC50 of 6.85 and an Emax of 96%.
Work on `COC(=O)N1CCC[C@H](NS(C)(=O)=O)[C@@H]1COC1CCN(c2ccccc2C(F)(F)F)CC1` (relative stereo) [Example 165, methyl cis-3-((methylsulfonyl)amino)-2-(((1-(2-(trifluoromethyl)phenyl)piperidin-4-yl)oxy)methyl)piperidine-1-carboxylate] yielded a pEC50 of 5.42 and an Emax of 80%.
`COC(=O)N1CCC[C@H](NS(C)(=O)=O)[C@@H]1COC1CCN(c2ccccc2Cl)CC1` (relative stereo) [Example 167, methyl cis-2-(((1-(2-chlorophenyl)piperidin-4-yl)oxy)methyl)-3-((methylsulfonyl)amino)piperidine-1-carboxylate] gave a pEC50 of 5.62 and an Emax of 83%.
`CS(=O)(=O)N[C@H]1CCCN(C(=O)C2(O)CC2)[C@H]1CO[C@H]1CC[C@@H](c2ccccc2)CC1` (relative stereo) [Example 176, N-(cis-1-((1-hydroxycyclopropyl)carbonyl)-2-(((cis-4-phenylcyclohexyl)oxy)methyl)piperidin-3-yl)methanesulfonamide] showed a pEC50 of 7.35 and an Emax of 98%.
`CC(=O)C(=O)N1CCC[C@H](NS(C)(=O)=O)[C@@H]1CO[C@H]1CC[C@@H](c2ccccc2)CC1` (relative stereo) [Example 177, N-(cis-2-(((cis-4-phenylcyclohexyl)oxy)methyl)-1-pyruvoylpiperidin-3-yl)methanesulfonamide] gave a pEC50 of 6.72 and an Emax of 96%.
With `CS(=O)(=O)N[C@H]1CCCN(C(=O)NCC#N)[C@H]1CO[C@H]1CC[C@@H](c2ccccc2)CC1` (relative stereo) [Example 179, cis-N-(cyanomethyl)-3-((methylsulfonyl)amino)-2-(((cis-4-phenylcyclohexyl)oxy)methyl)piperidine-1-carboxamide] the pEC50 was 9.51 and the Emax was 100%.
For `COC(=O)N1CCC[C@H](NS(C)(=O)=O)[C@@H]1COC1CCN(c2c(Cl)cccc2Cl)CC1` (relative stereo) [Example 186, methyl cis-2-(((1-(2,6-dichlorophenyl)piperidin-4-yl)oxy)methyl)-3-((methylsulfonyl)amino)piperidine-1-carboxylate], the pEC50 was 5.48 and the Emax was 86%.
With `CC(C)(O)C(=O)N1CCC[C@H](NS(C)(=O)=O)[C@@H]1CO[C@H]1CC[C@@H](c2ccccc2)CC1` (relative stereo) [Example 189, N-(cis-1-(2-hydroxy-2-methylpropanoyl)-2-(((cis-4-phenylcyclohexyl)oxy)methyl)piperidin-3-yl)methanesulfonamide] the pEC50 was 7.11 and the Emax was 88%.
Compound `CCNC(=O)N1CCC[C@H](NS(C)(=O)=O)[C@@H]1CO[C@H]1C[C@@H](c2ccc(C)cc2)C1` (relative stereo) [Example 192, cis-N-ethyl-2-(((cis-3-(4-methylphenyl)cyclobutyl)oxy)methyl)-3-((methylsulfonyl)amino)piperidine-1-carboxamide] has a pEC50 of 6.82 and an Emax of 108%.
In the case of `CS(=O)(=O)N[C@H]1CCCN(C(=O)C2CC2)[C@H]1CO[C@H]1C[C@@H](c2ccccc2)C1` (relative stereo) [Example 193, N-(cis-1-(cyclopropylcarbonyl)-2-(((cis-3-phenylcyclobutyl)oxy)methyl)piperidin-3-yl)methanesulfonamide], the pEC50 was 6.52 and the Emax was 88%.
For `COC(=O)N1CCC[C@H](NS(C)(=O)=O)[C@@H]1CO[C@H]1C[C@@H](c2ccccc2)C1` (relative stereo) [Example 194, methyl cis-3-((methylsulfonyl)amino)-2-(((cis-3-phenylcyclobutyl)oxy)methyl)piperidine-1-carboxylate], the Emax was 81%.
With `CCNC(=O)N1CCC[C@H](NS(C)(=O)=O)[C@@H]1COC1CCN(c2ccccc2F)CC1` (relative stereo) [Example 195, cis-N-ethyl-2-(((1-(2-fluorophenyl)piperidin-4-yl)oxy)methyl)-3-((methylsulfonyl)amino)piperidine-1-carboxamide] the pEC50 was 6.60 and the Emax was 102%.
`CS(=O)(=O)N[C@H]1CCCN(C(=O)C2CC2)[C@H]1COC1CCN(c2ncccn2)CC1` (relative stereo) [Example 196, N-(cis-1-(cyclopropylcarbonyl)-2-(((1-(pyrimidin-2-yl)piperidin-4-yl)oxy)methyl)piperidin-3-yl)methanesulfonamide] gave a pEC50 of 7.52 and an Emax of 104%.
Work on `CS(=O)(=O)N[C@H]1CCCN(C(=O)C2CC2)[C@H]1CO[C@H]1CC[C@@H](C)CC1` (relative stereo) [Example 197, N-(cis-1-(cyclopropylcarbonyl)-2-(((cis-4-methylcyclohexyl)oxy)methyl)piperidin-3-yl)methanesulfonamide] yielded an Emax of 90%.
Compound `CC(=O)N1CCC[C@H](NS(C)(=O)=O)[C@@H]1CO[C@H]1CC[C@@H](c2cc(F)ccc2F)CC1` (relative stereo) [Example 198, N-(cis-1-acetyl-2-(((cis-4-(2,5-difluorophenyl)cyclohexyl)oxy)methyl)piperidin-3-yl)methanesulfonamide] has a pEC50 of 7.25 and an Emax of 92%.
Work on `CS(=O)(=O)N[C@H]1CCCN(C(=O)C2CC2)[C@H]1COC1CCN(c2ccccc2Cl)CC1` (relative stereo) [Example 201, N-(cis-2-(((1-(2-chlorophenyl)piperidin-4-yl)oxy)methyl)-1-(cyclopropylcarbonyl)piperidin-3-yl)methanesulfonamide] yielded a pEC50 of 5.70 and an Emax of 92%.
`CS(=O)(=O)N[C@H]1CCCN(C(=O)C2CC2)[C@H]1COC1CCN(c2ncc(F)cn2)CC1` (relative stereo) [Example 202, N-(cis-1-(cyclopropylcarbonyl)-2-(((1-(5-fluoropyrimidin-2-yl)piperidin-4-yl)oxy)methyl)piperidin-3-yl)methanesulfonamide] gave a pEC50 of 7.72 and an Emax of 97%.
With `CC(=O)N1CCC[C@H](NS(C)(=O)=O)[C@@H]1CO[C@H]1CC[C@@H](c2cccc(C(F)(F)F)c2)CC1` (relative stereo) [Example 204, N-(cis-1-acetyl-2-(((cis-4-(3-(trifluoromethyl)phenyl)cyclohexyl)oxy)methyl)piperidin-3-yl)methanesulfonamide] the pEC50 was 6.15 and the Emax was 102%.
For `CCNC(=O)N1CCC[C@H](NS(C)(=O)=O)[C@@H]1CO[C@H]1CC[C@@H](c2cccc(C(F)(F)F)c2)CC1` (relative stereo) [Example 207, cis-N-ethyl-3-((methylsulfonyl)amino)-2-(((cis-4-(3-(trifluoromethyl)phenyl)cyclohexyl)oxy)methyl)piperidine-1-carboxamide], the pEC50 was 7.59 and the Emax was 110%.
`CS(=O)(=O)N[C@H]1CCCN(C(=O)C2CCCCC2)[C@H]1COC1CCN(c2ncccn2)CC1` (relative stereo) [Example 208, N-(cis-1-(cyclohexylcarbonyl)-2-(((1-(pyrimidin-2-yl)piperidin-4-yl)oxy)methyl)piperidin-3-yl)methanesulfonamide] showed a pEC50 of 6.03 and an Emax of 93%.
`CS(=O)(=O)N[C@H]1CCCN(C(=O)C2CC2)[C@H]1COC1CCN(c2cccc(F)c2Cl)CC1` (relative stereo) [Example 209, N-(cis-2-(((1-(2-chloro-3-fluorophenyl)piperidin-4-yl)oxy)methyl)-1-(cyclopropylcarbonyl)piperidin-3-yl)methanesulfonamide] gave a pEC50 of 5.72 and an Emax of 89%.
With `CC1(C)CCC(C(=O)N2CCC[C@H](NS(C)(=O)=O)[C@@H]2COC2CCN(c3ncccn3)CC2)CC1` (relative stereo) [Example 210, N-(cis-1-((4,4-dimethylcyclohexyl)carbonyl)-2-(((1-(pyrimidin-2-yl)piperidin-4-yl)oxy)methyl)piperidin-3-yl)methanesulfonamide] the pEC50 was 5.44 and the Emax was 86%.
`CS(=O)(=O)N[C@H]1CCCN(C(=O)C2CC2)[C@H]1COC1CCN(c2ncccn2)CC1(F)F` (relative stereo) [Example 211, N-(cis-1-(cyclopropylcarbonyl)-2-(((3,3-difluoro-1-(pyrimidin-2-yl)piperidin-4-yl)oxy)methyl)piperidin-3-yl)methanesulfonamide] was tested, and the pEC50 was 5.96 and the Emax was 94%.
`CS(=O)(=O)N[C@H]1CCCN(C(=O)C2CC2)[C@H]1COC1CCN(c2cc(F)ccc2Cl)CC1` (relative stereo) [Example 212, N-(cis-2-(((1-(2-chloro-5-fluorophenyl)piperidin-4-yl)oxy)methyl)-1-(cyclopropylcarbonyl)piperidin-3-yl)methanesulfonamide] was tested, and the pEC50 was 5.66 and the Emax was 89%.
